Measured values as given in patent US11407788B2, “Prostate-specific membrane antigen (PSMA) targeting peptides” (THE CURATORS OF THE UNIVERSITY OF MISSOURI, priority 2016, dated 2022).

What was measured:
LNCaP cells = test: Competitive inhibition of peptides and their corresponding phages; settings: for competitive inhibition of peptide to its corresponding phage: peptides at 100 μM
Procedure: Competitive binding inhibition between selected phages and their encoded peptides was examined in this study. […] The bound phages were recovered and titered as described above.
It was first evaluated whether these phages bind to LNCaP cells via specific interaction with their encoding peptides. LNCaP cells were pre-incubated with the encoding peptides, followed by washing and incubation with the corresponding phages. The bound phages were then eluted and titered.

[1] = tested on: PSMA-positive prostate cancer C4-2 cell line; test: Apparent Kd of FAM-labeled peptides by flow cytometry in C4-2 cells; format: cell-based
[2] = tested on: PSMA-positive LNCaP cells; test: Apparent Kd of FAM-labeled peptides by flow cytometry in LNCaP cells; format: cell-based; settings: 4° C., 1 h
PSMA = PSMA (Homo sapiens, UniProt Q04609); settings: Aggarwal et al. 2006; read-out: IC50 of inhibition of PSMA enzymatic activity; cited from earlier work
PSMA, sequence (Q04609 whole entry): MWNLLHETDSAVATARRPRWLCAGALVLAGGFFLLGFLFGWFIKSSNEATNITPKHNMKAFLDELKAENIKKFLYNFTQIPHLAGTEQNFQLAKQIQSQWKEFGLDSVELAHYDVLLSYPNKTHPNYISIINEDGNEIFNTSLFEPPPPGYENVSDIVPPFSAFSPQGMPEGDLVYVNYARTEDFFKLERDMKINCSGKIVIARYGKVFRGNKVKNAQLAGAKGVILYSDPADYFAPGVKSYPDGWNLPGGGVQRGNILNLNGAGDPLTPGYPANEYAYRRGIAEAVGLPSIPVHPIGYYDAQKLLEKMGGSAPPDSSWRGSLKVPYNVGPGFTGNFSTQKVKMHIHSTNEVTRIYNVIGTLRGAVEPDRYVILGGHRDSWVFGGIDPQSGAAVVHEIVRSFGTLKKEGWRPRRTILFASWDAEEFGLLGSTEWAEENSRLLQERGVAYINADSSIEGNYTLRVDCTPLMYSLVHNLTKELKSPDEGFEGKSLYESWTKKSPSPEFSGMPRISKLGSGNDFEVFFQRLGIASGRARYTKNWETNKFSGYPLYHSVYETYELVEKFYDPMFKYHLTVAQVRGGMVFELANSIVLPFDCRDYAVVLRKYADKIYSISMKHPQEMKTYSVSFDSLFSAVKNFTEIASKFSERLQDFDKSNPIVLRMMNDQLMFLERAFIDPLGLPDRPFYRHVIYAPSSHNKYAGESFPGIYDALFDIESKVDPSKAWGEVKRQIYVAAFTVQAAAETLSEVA

Q: What does the source list for HSDNHYRPADKL [phage-derived peptide]?
A: competitive inhibition of peptide to its corresponding phage (LNCaP cells): negligible; affinity to C4-2 cells compared to LNCaP cells [1]: less affinity

Q: For KYLAYPDSVHIW, which Kd [2] is on record?
A: Its Kd is 14.4 µM.

Q: What does the source list for NRPDSAQFWLHH?
A: competitive inhibition of peptide to its corresponding phage (LNCaP cells): negligible; competitive inhibition of peptide to its corresponding phage at various concentrations (LNCaP cells; series of concentrations): does not affect the binding

Q: For QPGHAILAQHPT, which “competitive inhibition of peptide to its corresponding phage” value (LNCaP cells) is on record?
A: The value was “negligible”.

Q: With SMAGEQISWALI as the sequence, how does the “competitive inhibition of peptide to its corresponding phage” value (LNCaP cells) read?
A: Its value is “negligible”.

Q: Which “competitive inhibition of peptide to its corresponding phage” value (LNCaP cells) does the source give for TGHLYPTRMEIQ [phage-derived peptide] here?
A: Its value is “relatively weaker competitive inhibition”.

Q: What about the “affinity to C4-2 cells compared to LNCaP cells” value [1] of the same sequence?
A: The value was “less affinity”.

Q: For WQPDTAHHWATL, which Kd [2] is on record?
A: The Kd was 23.6 µM.

Q: What about the IC50 (PSMA) of the same sequence?
A: The IC50 was 23 µM.

Q: With YPTDWLWHGHNK as the sequence, how does the “competitive inhibition of peptide to its corresponding phage” value (LNCaP cells) read?
A: The value was “negligible”.

Q: Which “competitive inhibition of peptide to its corresponding phage” value (LNCaP cells) does the source give for YVNSHSILGYTG here?
A: The value was “relatively weaker competitive inhibition”.
